From the METLIN SMRT retention time set (Domingo-Almenara et al. 2019)

Test: gradient 5% acetonitrile 3 min, to 50% in 2 min, to 85% in 15 min, held 3 min, 100 µL/min
Settings: column: Zorbax Extend-C18 2.1 x 50 mm; eluents: water / acetonitrile, 0.1% formic acid
Outline: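 Values are retention times taken from adduct peaks that software picked and an analyst inspected. The pure standards were run as mixtures of ~100 molecules on HPLC linked to a quadrupole time-of-flight mass spectrometer, in positive and negative ionization mode. A Zorbax Extend-C18 column (2.1 × 50 mm, 1.8 μm) was used at 100 μL/min with water and acetonitrile, each including 0.1% formic acid.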

Structure (SMILES): CC(Oc1cccc(Cl)c1)c1nc(-c2ccc3c(c2)nnn3CCC(=O)N2CCCC2)no1 (stereo not given)
- RP-LC retention time: 1010 s

Structure (SMILES): O=C(Cc1cn(Cc2ccc(Cl)cc2)c2ccccc12)NCc1ccccn1
- RP-LC retention time: 700 s

Structure (SMILES): CC(C)Oc1ccc(CNS(=O)(=O)c2cc(-c3nc(C(C)C)cs3)cs2)cc1
- RP-LC retention time: 1210 s

Structure (SMILES): CCN1CCN(C(=O)c2cnn(-c3cc(-c4nc(C)no4)ccn3)c2C)CC1
- RP-LC retention time: 585 s

Structure (SMILES): O=C(Cn1cccc1-c1nnc(C2CCC2)o1)Nc1ccc(F)c(Cl)c1
- RP-LC retention time: 965 s

Structure (SMILES): O=C(Nc1cnc(N2CCCC2)nc1)c1ccccc1
- RP-LC retention time: 676 s

Structure (SMILES): COCCN1C(=O)[C@H]2CN(Cc3cccc(Cl)c3)C[C@H]2C1=O
- RP-LC retention time: 633 s

Structure (SMILES): Cc1ccc(C(=O)C2=C(O)C(=O)N(c3ncccn3)C2c2cccc(Cl)c2)o1 (stereo not given)
- RP-LC retention time: 732 s

Structure (SMILES): Cc1cc2c(cc1S(=O)(=O)N1CCCC1C(=O)NC1CCCCCCC1)OC(C)C(=O)N2 (stereo not given)
- RP-LC retention time: 857 s

Structure (SMILES): Cc1cccn2cc(C(=O)NCc3ccccc3Cl)nc12
- RP-LC retention time: 704 s

Structure (SMILES): COc1ccc(-c2nc3cnccn3c2Nc2ccc(C(=O)NCCN(C)C)cc2)cc1
- RP-LC retention time: 586 s

Structure (SMILES): CCn1ccc2sc(C)c(C(=O)O)c2c1=O
- RP-LC retention time: 702 s

Structure (SMILES): CCN1CCC2(CC1)OC(=O)C(C)=C2C(=O)Nc1ccc(Br)cc1F
- RP-LC retention time: 650 s

Structure (SMILES): Cn1nccc1C(=O)N1CCCCC1c1nncn1Cc1ccccc1 (stereo not given)
- RP-LC retention time: 665 s

Structure (SMILES): CCN(CC)S(=O)(=O)c1ccc(NC(=O)N2CCCC(C(=O)Nc3ccc(OC)cc3)C2)s1 (stereo not given)
- RP-LC retention time: 884 s

Structure (SMILES): COc1ccccc1OCC(=O)N1CCN(c2nc(CN3CCOCC3)cs2)CC1
- RP-LC retention time: 613 s

Structure (SMILES): Cc1n[nH]c(C)c1CCC(=O)NCc1c(F)cccc1F
- RP-LC retention time: 526 s

Structure (SMILES): O=C(c1cc(-c2ccncc2)n[nH]1)N1CCC(C(=O)N2CCN(c3ncccn3)CC2)CC1
- RP-LC retention time: 575 s

Structure (SMILES): NC(=O)C1CCN(C(=O)CSc2nc3c(c(-c4ccccc4)n2)CCCC3)CC1
- RP-LC retention time: 702 s

Structure (SMILES): Cc1cc(C)cc(NC(=O)NC2CCN(c3cc(N4CCCC4)cnn3)C2)c1 (stereo not given)
- RP-LC retention time: 690 s

Structure (SMILES): O=C(Cn1cnc2c(sc3nc(-c4ccccc4)ccc32)c1=O)Nc1ccc(F)c(F)c1
- RP-LC retention time: 1040 s

Structure (SMILES): CSc1ncccc1-c1nc(-c2ccc3c(c2)ncn3CCN2CCCCC2)no1
- RP-LC retention time: 649 s

Structure (SMILES): O=C([C@H]1C[C@@H](F)CN1C(=O)Nc1cccc(Cl)c1)N1CCOCC1
- RP-LC retention time: 653 s

Structure (SMILES): O=C1c2ccccc2C(=O)C1c1ccccn1
- RP-LC retention time: 749 s

Structure (SMILES): CCn1ccc(-c2nc(CCS(=O)(=O)c3ccccc3)no2)n1
- RP-LC retention time: 768 s

Structure (SMILES): COc1ccc(-c2cn3c(CC(=O)Nc4ccc(C(F)(F)F)cc4)csc3n2)cc1OC
- RP-LC retention time: 846 s

Structure (SMILES): O=C(Nc1nccs1)c1cccc(NS(=O)(=O)c2ccc(F)cc2)c1
- RP-LC retention time: 751 s

Structure (SMILES): CCCNc1cc(N2CCC(CCC(=O)NCc3ccccc3OC)CC2)ncn1
- RP-LC retention time: 684 s

Structure (SMILES): O=C1C(N2CCN(S(=O)(=O)c3ccccc3)CC2)CCN1CCc1ccccc1 (stereo not given)
- RP-LC retention time: 642 s

Structure (SMILES): CCCCNC(=O)c1sc2ncn(CC(=O)N3CC(C)CC(C)C3)c(=O)c2c1C (stereo not given)
- RP-LC retention time: 890 s

Structure (SMILES): O=C(NCc1ccc(F)c(Cl)c1)c1cn2c(n1)COCC2
- RP-LC retention time: 690 s

Structure (SMILES): COCCOC1CCC12CCN(C(=O)c1cnc[nH]1)CC2 (stereo not given)
- RP-LC retention time: 575 s

Structure (SMILES): CCOc1ccc(S(=O)(=O)N2CCC(C(=O)N3CCc4ccccc4C3)CC2)cc1
- RP-LC retention time: 985 s

Structure (SMILES): Cc1ccc(-n2c(=O)c3sccc3n(Cc3nc(-c4ccc(Br)cc4)no3)c2=O)cc1
- RP-LC retention time: 1110 s

Structure (SMILES): Cc1noc(-c2ccc(NC(=O)CSc3nnnn3C)cc2)n1
- RP-LC retention time: 665 s

Structure (SMILES): O=S(=O)(Cc1ccccc1Cl)NCCN1CCN(c2ccc(F)cc2)CC1
- RP-LC retention time: 591 s

Structure (SMILES): CCOC(=O)N1CCN(C(=O)C2CC2c2ccc(F)cc2)CC1 (stereo not given)
- RP-LC retention time: 755 s

Structure (SMILES): CN1CCc2nnc(C3CCN(C(=O)Nc4ccc(Cl)cc4F)C3)n2CC1 (stereo not given)
- RP-LC retention time: 573 s

Structure (SMILES): CC(C)c1noc(-c2ccc(-n3cnc(C(=O)N4CCOCC4)c3)nc2)n1
- RP-LC retention time: 745 s

Structure (SMILES): CCN(CC)S(=O)(=O)c1cc(-c2nnc(-c3ccc(OC)c(OC)c3)o2)ccc1Cl
- RP-LC retention time: 1010 s

Structure (SMILES): CCNc1cc(N2CCC(CCC(=O)Nc3ccc(OC)cc3OC)CC2)ncn1
- RP-LC retention time: 665 s

Structure (SMILES): O=C(Cn1cnc2ccccc2c1=O)NC1CCCC1
- RP-LC retention time: 672 s

Structure (SMILES): COc1ccccc1Oc1ccc(S(=O)(=O)NCc2ccco2)cc1
- RP-LC retention time: 873 s

Structure (SMILES): CC1CCN(S(=O)(=O)c2cccc(-c3nnc(-c4ccc(Cl)cc4)o3)c2)CC1
- RP-LC retention time: 1250 s

Structure (SMILES): Cc1c(Cl)cccc1NC(=O)N1CCc2nc(-c3ccc(F)cc3)ncc2C1
- RP-LC retention time: 996 s

Structure (SMILES): CCS(=O)(=O)Nc1cccc(-c2nc3cccnc3s2)c1
- RP-LC retention time: 720 s

Structure (SMILES): CCOc1ccc(-c2ccc(=O)n(CCNC(=O)c3cc(C)oc3C)n2)cc1
- RP-LC retention time: 765 s

Structure (SMILES): CN(CC1CCOC1)C(=O)Nc1cccc(F)c1 (stereo not given)
- RP-LC retention time: 660 s

Structure (SMILES): COc1ccc(-c2ccc3nc(N4CCC(C(=O)N5CCOCC5)CC4)sc3n2)cc1
- RP-LC retention time: 822 s

Structure (SMILES): CS(=O)(=O)N1CCC(C(=O)NCc2ccco2)Oc2ccc(Cl)cc21 (stereo not given)
- RP-LC retention time: 839 s

Structure (SMILES): Cc1cccc2c(C(N)=O)c3c(nc12)CCC3
- RP-LC retention time: 560 s

Structure (SMILES): O=C(CN1CCc2ccccc2C1C(=O)N1CCCC1)NCc1ccc(C(F)(F)F)cc1 (stereo not given)
- RP-LC retention time: 880 s

Structure (SMILES): O=C(Cc1ccc(Br)cc1)NC1CCN(c2cc(-c3ccc(Cl)cc3)[nH]n2)C1 (stereo not given)
- RP-LC retention time: 854 s

Structure (SMILES): O=C(NC1CC1)c1ccc(OCC2CCN(C(=O)Cc3ccccc3Cl)CC2)cc1
- RP-LC retention time: 868 s

Structure (SMILES): Cc1cc2c(c(=O)n(-c3ccc(F)cc3)c(=O)n2CC(=O)Nc2ccccc2F)n1C
- RP-LC retention time: 837 s

Structure (SMILES): CCN(CC)C(=O)CN1C(=O)COc2ccc(C(=O)N3CCCCC3)cc21
- RP-LC retention time: 695 s

Structure (SMILES): Cc1ccc(-n2c(N3CCCC(C(=O)NCC(C)C)C3)nc3ccsc3c2=O)cc1 (stereo not given)
- RP-LC retention time: 847 s

Structure (SMILES): Cc1cc(C(=O)N2CCN(c3ccccc3F)CC2)n[nH]1
- RP-LC retention time: 714 s

Structure (SMILES): CC1Oc2ccccc2OC1C(=O)Nc1cccc(-c2cn3c(n2)SCC3)c1 (stereo not given)
- RP-LC retention time: 656 s

Structure (SMILES): CCOc1ccc(-c2nc(Cc3noc(-c4cccnc4)n3)c(C)o2)cc1
- RP-LC retention time: 967 s

Structure (SMILES): CSc1cccc(NC(=O)Nc2ccccc2C(N)=O)c1
- RP-LC retention time: 856 s

Structure (SMILES): COC(=O)c1ccc2c(=O)n(-c3cccc(OC)c3)c(N3CCN(c4ccccn4)CC3)nc2c1
- RP-LC retention time: 705 s

Structure (SMILES): Cc1cccc(Nc2nc(-c3ccc(F)c(C)c3)cs2)n1
- RP-LC retention time: 992 s

Structure (SMILES): CN1CCC([C@@H]2CN(S(=O)(=O)c3ccc(Cl)s3)C[C@H]2C(N)=O)CC1
- RP-LC retention time: 573 s

Structure (SMILES): CNC(=O)c1nc(C(C)(C)NC(=O)c2ccco2)nc2c1OCO2
- RP-LC retention time: 623 s

Structure (SMILES): Cc1cccc(-c2noc(-c3ccc(N4CCN(Cc5ccc6c(c5)OCO6)CC4)nc3)n2)c1
- RP-LC retention time: 848 s

Structure (SMILES): CC(C)n1c(N2CCCN(C(=O)c3ccc(Br)o3)CC2)cc(=O)n(C(C)C)c1=O
- RP-LC retention time: 866 s

Structure (SMILES): CCCN(C)C(=O)C1CCN(c2cn[nH]c(=O)c2)CC1
- RP-LC retention time: 597 s

Structure (SMILES): COc1cccc(C(=O)NC2(C(F)(F)F)C(=O)N(C3CCCC3)C(C)=C2C(C)=O)c1 (stereo not given)
- RP-LC retention time: 964 s

Structure (SMILES): O=C(CN1C(=O)c2ccccc2C1=O)Nc1nnc(-c2ccc3c(c2)CCCC3)o1
- RP-LC retention time: 856 s

Structure (SMILES): CCc1ccc(CNC(=O)C2CCN(Cc3cn(C)c4ccc(Cl)cc34)CC2)cc1
- RP-LC retention time: 793 s

Structure (SMILES): O=C(CSCc1ccccc1)NCC1CCN(c2ncccn2)CC1
- RP-LC retention time: 703 s

Structure (SMILES): O=C(NCc1ccc(F)cc1)C1CCCN(c2ncnc3c2nc2n3CCCCC2)C1 (stereo not given)
- RP-LC retention time: 759 s

Structure (SMILES): Cc1cccn2c(=O)c(-c3nn[nH]n3)cnc12
- RP-LC retention time: 646 s

Structure (SMILES): COc1cc(OC)cc(C(=O)N2CCN(c3nc4ccccc4cc3-c3noc(C)n3)CC2)c1
- RP-LC retention time: 971 s

Structure (SMILES): Cc1cc(=O)n(CC(=O)N2CCN(c3ccc(F)cc3)CC2)c(N2CCc3ccccc3C2)n1
- RP-LC retention time: 799 s

Structure (SMILES): COc1ccccc1C(=O)N1CCC(n2cnnc2-c2ccccc2)C1 (stereo not given)
- RP-LC retention time: 643 s

Structure (SMILES): COc1ccc(-c2nnc(-c3cccnc3N3CCC4(CC3)OCCO4)o2)cc1
- RP-LC retention time: 875 s

Structure (SMILES): CCN1C(=O)COc2ccc(-c3noc(-c4cc(OC)cc(OC)c4)n3)cc21
- RP-LC retention time: 1040 s

Structure (SMILES): COc1cccc(CNC(=O)Nc2cccc(-c3ccc(N4CCCCC4)nn3)c2)c1
- RP-LC retention time: 702 s

Structure (SMILES): CCOC(=O)c1c(Cc2ccc(Cl)cc2)c[nH]c1C
- RP-LC retention time: 1010 s

Structure (SMILES): Cc1cccc(NC(=O)Nc2cnn(-c3ncncc3N3CCC(C)CC3)c2)c1
- RP-LC retention time: 761 s

Structure (SMILES): O=C(NCc1nn(Cc2ccccc2)c2ccccc12)c1ccoc1
- RP-LC retention time: 870 s

Structure (SMILES): Cc1ccn2c(NC(=O)COc3ccccc3)c(-c3ccc(F)cc3)nc2c1
- RP-LC retention time: 689 s

Structure (SMILES): COc1ccc(C(F)(F)F)cc1NC(=O)C1CCCN(c2ccc(-n3ccnc3)nn2)C1 (stereo not given)
- RP-LC retention time: 609 s

Structure (SMILES): CC(C)CCNC(=O)[C@H](CC(C)C)NC(=O)[C@H]1O[C@@H]1C(=O)O
- RP-LC retention time: 841 s

Structure (SMILES): O=C(Nc1nnc(C2CC(=O)N(c3ccc(Cl)cc3)C2)o1)c1ccccc1 (stereo not given)
- RP-LC retention time: 752 s

Structure (SMILES): O=C(O)c1ccccc1-c1nc2ccccc2[nH]1
- RP-LC retention time: 537 s

Structure (SMILES): Cc1ccccc1S(=O)(=O)N1CCCN(c2ccc(=O)n(-c3ccccc3)n2)CC1
- RP-LC retention time: 859 s

Structure (SMILES): CN(C)c1nc(C(=O)N2CCN(c3cccc(Cl)c3)CC2)nc2c1cnn2C
- RP-LC retention time: 818 s
